Entries after “also recorded” stand apart in the source; their conditions may differ.
Assays:
[1] = biological target: T1, binding of heparin to peptide Hep-II (Homo sapiens, UniProt P08572); assay: Heparin/peptide interaction specificity: competition of 3H-heparin binding to coated peptide Hep-II by glycosaminoglycans; conditions: Hep-II coated from 500 μg/ml; 3H-heparin 50,000 cpm per well; 2 h 37° C.
T1 construct: made in house; host or cells: chemical solid-phase (Merrifield) synthesis, no expression host
Method: To check the specificity of the interaction between heparin and peptide Hep-II or whether the heparin structure was also critical to this interaction, heparin along with other sulfated glucosaminoglycans, dextran and chondroitin sulfate were used in competition experiments. A standard amount of 50 μg of a solution containing 500 μg/ml of peptide Hep-II was coated on 96-well plates as described above. Wells were treated for two hours with 2 mg/ml BSA in wash buffer. Then, a final volume of 50 μl was added to each well, containing a standard amount of […] (50,000 cpm per well) and various amounts of non-radioactive heparin, dextran or chondroitin sulfate. After incubating for two hours at 37° C., the wells were washed and radioactivity was counted as described above in Example 1.

[2] = Heparin binding to plastic plates coated with peptide (3H-heparin direct binding)
Method: The ability of the synthesized peptide Hep-II to interact with heparin when coated on 96-well plastic plates was evaluated. Stock solutions of peptide Hep-II at a concentration of 500 μg/ml were prepared in phosphate-buffered saline containing 0.02% sodium azide. Fifty μl from each concentration was coated on the 96-well plates and left to dry overnight at 28° C. Then, wells were treated for two hours with […] of 2 mg/ml BSA and 6 mM phosphate, 10 mM NaCl, 68 μM CaCl2, pH 6.8 (wash buffer) in order to minimize non-specific binding. Next 50 μl of ^3 H-heparin (10 μg/ml) was added at increasing concentrations (0 to 1400 ng/well) for two hours at 37° C. The wells were then washed three times with wash buffer containing 0.05% Triton X-100 and finally they were incubated for thirty minutes at 60° C. with 200 μl of 0.5 N NaOH and 1% SDS. The amount of ^3 H-heparin bound at each concentration was quantitated with a Beckman LS-3801 liquid scintillation counter. […] Comparison with data obtained in the past using exactly the same methodology indicate that peptide Hep-II is at least 10 times stronger than peptide Hep-I (see FIG. 3B) and about 100 times stronger than type IV collagen, when used in the same coating concentrations.

[3] = system: binding of heparin to type IV collagen; assay: Inhibition of heparin binding to type IV collagen coated on plastic by peptide in solution; conditions: peptide in solution 0.5 mg/ml to 5 μg/ml; 3H-heparin 500 ng per well; type IV collagen coated at 60 μg/ml
Method: Peptide Hep-II in solution (and not absorbed to plastic), was screened for the ability to inhibit the binding of heparin to intact, native type IV collagen coated on plastic. This experimental approach avoids problems due to differential coating of peptides in heparin binding assays. Type IV collagen at 60 μg/ml in PBS was coated on 96-well plates, using 50 μl per well and dried overnight at 28° C. The wells were then treated for two hours with 2 mg/ml BSA in wash buffer (described above in Example 1). Peptide Hep-II at various dilutions ranging from 0.5 mg/ml to 5 μg/ml in PBS and CHAPS (cholamido-propyl-dimethyl-ammonio-propane-sulfonate) (a detergent used to avoid non-specific sticking) was co-incubated with a standard amount of ^3 H-heparin (500 ng per well […] final concentration) for two hours at 37° C. and the mixture was then transferred to the […] coated plate (50 μl ) and allowed to incubate for another two hours at 37° C. The wells were then washed and radioactivity was counted as described above. […] Peptide Hep-I is also shown in comparison.

[4] = system: bovine aortic endothelial cells; assay: Direct adhesion of endothelial cells to peptide-coated plastic; format: cell-based; conditions: 35S-labeled cells, 120 min. at 37° C.; increasing coating concentrations
Method: Bovine aortic endothelial cells were isolated according to the following protocol. Aortas were obtained from a local slaughterhouse, washed in cold phosphate buffered saline (PBS) (136 mM NaCl, 2.6 mM KCl, 15.2 mM Na2 HPO4, pH 7.2) and processed within 2 hours. Crude collagenase (CLS III, 125-145 units per mg dry weight, Cooper Biomedical) was used at 2 mg/ml in Dulbecco's modified Eagle's medium (DMEM) (GIBCO). The vessel was clamped at the distal end, filled with the collagenase-PBS solution and digestion was carried out for 10 minutes. The lumenal contents were harvested, followed by the addition of fresh collagenase for two additional 10-minute periods. The enzyme-cell suspensions were added to an equal volume of DMEM containing 10% fetal bovine serum (FBS) to inhibit the enzyme and spun in a centrifuge at 400× g for 10 minutes. The resulting cell pellet was resuspended in DMEM containing 10% FBS, 100 units/ml of penicillin G, 100 μg/ml of streptomycin and 100 μg/ml of crude fibroblast growth factor. Cells are cultured in 75 cm^2 flasks in a humidified 5% CO2 atmosphere at 37° C. Cultures were fed twice a week with the same medium and cells were used in assays when approximately 75% confluent. […] At the end of the incubation period the wells were washed, bound radioactivity was solubilized by 1% SDS-0.5 N NaOH and quantitated in a Beckman scintillation counter. […]

[5] = system: endothelial cells; assay: Direct binding of 125I-labeled peptide Hep-II to cell surfaces; set-up: species or system bovine; conditions: about 5,000 cells, 15 min. at 4° C., increasing concentrations
Method: Endothelial cells were grown in culture as described in example 4 (supra). Cells used for this type of experiment were not labeled with radioactivity. Unlabeled cells were harvested by trypsinization (supra) on the day of the experiment. About 5,000 cells were mixed with 50 μl of a given concentration of peptide Hep-II in solution. Increasing concentrations of peptide Hep-II were used. The cells were incubated with the iodinated peptide for 15 min. at 4° C. and they were then pelleted by centrifugation. The cells were then resuspended and washed 3 times with DMEM containing 2 mg/ml BSA and 50 mM Hepes. Following the washes, the cells were pelleted for a final time in plastic tubes, the supernatant was decanted and the radioactivity of the pellet was quantitated in a Beckman scintillation counter. The binding of peptide Hep-II to endothelial cells is saturable (FIG. 8)----an indication of specificity. These experiments indicate that peptide Hep-II specifically interacts with the surfaces of endothelial cells.

[6] = system: endothelial cells; assay: Inhibition of the binding of 125I-labeled peptide Hep-II to the cell surface by excess unlabeled peptide; set-up: species or system bovine; conditions: unlabeled peptide up to 500-fold excess; 15 min. at 4° C.
Method: Endothelial cells were grown in culture as discussed in examples 4 and 5A (supra). On the day of the experiment, the cells were harvested by trypsinization (supra) and were co-incubated with 50 μl of peptide Hep-II. 50 μl a constant amount of ^125 I-labeled peptide Hep-II was mixed with increasing concentrations of unlabeled peptide Hep-II or a control peptide (maximal excess of unlabeled peptide: 500-fold over radiolabeled Hep-II). 50 μl of each concentration of unlabeled peptide which was mixed with radiolabeled Hep-II were then added to cells in suspension (5,000 cells per concentration of peptide). The cells were incubated with the mixture of unlabeled-radiolabeled peptide for 15 min. at 4° C. and they were then pelleted. The cells were subsequently washed and bound radioactivity was quantitated as described in example 4. […] These experiments provide confirmation that a specific interaction occur between endothelial-cell surfaces and peptide Hep-II.

[7] = system: melanoma and endothelial cells; assay: Promotion of cell adhesion and spreading (summary statements); format: cell-based; conditions: many cell types, including melanoma and endothelial cells
[8] = reported from U.S. Pat. No. 4,876,332; cited from earlier work
[9] = system: melanoma and endothelial cells; conditions: reported from U.S. Pat. No. 4,876,332; cited from earlier work

## chondroitin sulfate
[1]
  competition for the binding of tritiated heparin to peptide Hep-II: cannot mimic this effect except at extremely high concentrations

## leu-ala-gly-ser-cys-leu-ala-arg-phe-ser-thr-met (LAGSCLARFSTM) [Hep-II, type IV collagen residues 49-60 from the carboxyl-terminus of the α2 chain of the NCl domain]
[2]; peptide coated on 96-well plates from 500 μg/ml stock, 3H-heparin 0 to 1400 ng/well, 2 h 37° C.
  heparin binding to peptide coated on plastic: extremely potent promoter of heparin-binding; also recorded: very potent binder of heparin
[2]; same coating concentrations, same methodology
  heparin binding strength relative to type IV collagen: about 100 times
[3]
  inhibition of heparin binding to type IV collagen: strong inhibitor of heparin binding to type IV collagen
[4]
  adhesion of endothelial cells to coated substrate: promotes substantial adhesion of endothelial cells even at very low plating concentrations
[5]
  binding of 125I-labeled peptide to endothelial cells: saturable
[6]
  competition of the binding of radiolabeled Hep-II to the surface of endothelial cells: can be competed only by an excess of unlabeled peptide Hep-II
[7]
  promotion of cell adhesion/attachment and spreading: potent promoter of cell adhesion and spreading; also recorded: potent promoter of cell attachment and spreading

## dextran
[1]
  competition for the binding of tritiated heparin to peptide Hep-II: substantially more dextran is needed to achieve similar levels of competition

## thr-ala-gly-ser-cys-leu-arg-lys-phe-ser-thr-met (TAGSCLRKFSTM) [Hep-I, peptide from the NCl domain of the α1(IV) chain, position 49-60 from the carboxyl terminus; U.S. Pat. No. 4,876,332]
[8]
  heparin binding (earlier U.S. Pat. No. 4,876,332): ability to bind heparin
[9]
  promotion of cell adhesion (earlier U.S. Pat. No. 4,876,332): promote cell adhesion

## heparin
[1]
  competition for the binding of tritiated heparin to peptide Hep-II: able to compete for the binding of tritiated heparin to peptide Hep-II at very low concentrations
